In patent US11065253B2, “Arylquinazolines” (Merck Patent GmbH, priority 2013, dated 2021):

tested on: phospho-serine 2056 DNA-PK in HCT116 cells; test: DNA-PK phosphorylation at serine 2056 (cellular), ELISA in bleomycin-treated HCT116 cells; assay type: cell-based; conditions: Homo sapiens, HCT-116, 6 h, cellular; HCT116 cells, 10 μM bleomycin, six hours; read-out: IC50 pDNA-PK
How it was run: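 Chemiluminescent ELISA read-out; phospho-specific signal normalised to total DNA-PKcs. Cells (HCT116) exposed 6 h to test compound plus 10 μM bleomycin to induce double-strand breaks; DMSO control served as blank.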

Structure (SMILES) | IC50
COc1cc(Cl)nnc1C(O)c1cc(-c2ncnc3cc(N4CCOCC4)ccc23)c(F)cc1Cl (centres unmarked) [Example 8, [2-Chloro-4-fluoro-5-(7-morpholin-4-yl-quinazolin-4-yl)phenyl]-(6-chloro-4-methoxy-pyridazin-3-yl)methanol] | 0.5 to 5 µM
COc1cnc(Cl)c(C(O)c2ccc(F)c(-c3ncnc4cc(N5CCOCC5)ccc34)c2)n1 (centres unmarked) [Example 26, (3-Chloro-6-methoxy-pyrazin-2-yl)-[4-fluoro-3-(7-morpholin-4-yl-quinazolin-4-yl)phenyl]-methanol] | < 0.5 µM

Other lines, results leading:

IC50 | Structure (SMILES)
< 0.5 µM | O[C@H](c1ccc(F)c(-c2ncnc3cc(N4CCOCC4)ccc23)c1)c1nccnc1Cl [Example 27, (R)-(3-Chloro-pyrazin-2-yl)-[4-fluoro-3-(7-morpholin-4-yl-quinazolin-4-yl)phenyl]-methanol]
< 0.5 µM | CCn1nc(C(O)c2cc(-c3ncnc4cc(N5CCOCC5)ccc34)c(F)cc2Cl)ccc1=O (centres unmarked) [Example 93, 6-{[2-Chloro-4-fluoro-5-(7-morpholin-4-yl-quinazolin-4-yl)phenyl]-hydroxymethyl}-2-ethyl-2H-pyridazin-3-one]

same assay, conditions: Homo sapiens, HCT-116, cellular DNA-PK phosphorylation at serine 2056, HCT116 cells; read-out: IC50 pDNA-PK

Structure (SMILES) | IC50
OC(c1ccc(F)c(-c2ncnc3cc(N4CCOCC4)ccc23)c1)c1ncnc2ccsc12 (centres unmarked) [Example 438, [4-Fluoro-3-(7-morpholin-4-yl-quinazolin-4-yl)-phenyl]thieno[3,2-d}-pyrimidin-4-yl-methanol] | < 0.5 µM
OC(c1cc(-c2ncnc3cc(N4CCOCC4)ccc23)c(F)cc1F)c1ncnc2ccoc12 (centres unmarked) [Example 444, [2,4-Difluoro-5-(7-morpholin-4-yl-quinazolin-4-yl)-phenyl]furo[3,2-d}-pyrimidin-4-yl-methanol] | 0.5 to 5 µM

Further lines, results first:

IC50 | Structure (SMILES)
0.5 to 5 µM | Cn1cnc2ncnc(C(O)c3ccc(F)c(-c4ncnc5cc(N6CCOCC6)ccc45)c3)c21 (centres unmarked) [Example 433, [4-Fluoro-3-(7-morpholin-4-yl-quinazolin-4-yl)-phenyl]-(7-methyl-7H-purin-6-yl)-methanol]
< 0.5 µM | OC(c1cc(-c2ncnc3cc(N4CCOCC4)ccc23)c(F)cc1Cl)c1ncnc2ccoc12 (centres unmarked) [Example 440, [2-Chloro-4-fluoro-5-(7-morpholin-4-yl-quinazolin-4-yl)-phenyl]furo[3,2-d}-pyrimidin-4-yl-methanol]

same assay, conditions: Homo sapiens, HCT-116, phospho-serine 2056 DNA-PK, bleomycin-treated HCT116 cells; class symbols A-D; read-out: IC50 pDNA-PK

Structure (SMILES) | IC50
N#CCCOc1ccc(C(O)c2cc(-c3ncnc4cc(N5CCOCC5)ccc34)c(F)cc2Cl)nn1 (centres unmarked) [Example 107, 3-(6-{[2-Chloro-4-fluoro-5-(7-morpholin-4-yl-quinazolin-4-yl)-phenyl]hydroxy-methyl}pyridazin-3-yl-oxy)propionitrile] | 0.5 to 5 µM
COc1nnc(C(O)c2cc(-c3ncnc4cc(N5CCOCC5)ccc34)c(F)cc2Cl)cc1C (centres unmarked) [Example 110, [2-Chloro-4-fluoro-5-(7-morpholin-4-yl-quinazolin-4-yl)-phenyl]-(6-methoxy-5-methylpyridazin-3-yl)methanol] | 0.5 to 5 µM
OC(c1cccc(-c2ncnc3cc(N4CCOCC4)ccc23)c1)(c1nccs1)C(F)(F)F (centres unmarked) [Example 159, 2,2,2-Trifluoro-1-[3-(7-morpholin-4-yl-quinazolin-4-yl)-phenyl]-1-thiazol-2-ylethanol] | 10 to 30 µM
NC(=O)COc1ccc(C(O)c2cc(-c3ncnc4cc(N5CCOCC5)ccc34)c(F)cc2Cl)nn1 (centres unmarked) [Example 111, 2-(6-{[2-Chloro-4-fluoro-5-(7-morpholin-4-yl-quinazolin-4-yl)-phenyl]hydroxy-methyl}pyridazin-3-yloxy)acetamide] | 5 to 10 µM

Next, values leading:

IC50 | Structure (SMILES)
0.5 to 5 µM | OC(c1ccc(F)c(-c2ncnc3cc(N4CCOCC4)ccc23)c1)c1ccc(OC(F)F)nn1 (centres unmarked) [Example 121, (6-Difluoro-methoxy-pyridazin-3-yl)-[4-fluoro-3-(7-morpholin-4-yl-quinazolin-4-yl)-phenyl]methanol]
0.5 to 5 µM | CC(O)c1csc(C(O)c2cc(-c3ncnc4cc(N5CCOCC5)ccc34)c(F)cc2Cl)n1 (centres unmarked) [Example 201, 1-(2-{[2-Chloro-4-fluoro-5-(7-morpholin-4-yl-quinazolin-4-yl)-phenyl]hydroxy-methyl}thiazol-4-yl)-ethanol]
10 to 30 µM | OC(c1ccc(F)c(-c2ncnc3cc(N4CCOCC4)ncc23)c1)c1nccs1 (centres unmarked) [Example 140, [4-Fluoro-3-(7-morpholin-4-yl-pyrido[4,3-d}-pyrimidin-4-yl)-phenyl]thiazol-2-yl-methanol]
5 to 10 µM | CC(C)n1cc(C(O)c2ccc(F)c(-c3ncnc4cc(N5CCOCC5)ccc34)c2)cn1 (centres unmarked) [Example 197, [4-Fluoro-3-(7-morpholin-4-yl-quinazolin-4-yl)-phenyl]-(1-isopropyl-1 H-pyrazol-4-yl)-methanol]
0.5 to 5 µM | COc1ccc(C(O)c2cc(-c3ncnc4cc(N5CCOCC5)ccc34)c(F)cc2F)nc1 (centres unmarked) [Example 224, [2,4-Difluoro-5-(7-morpholin-4-yl-quinazolin-4-yl)-phenyl]-(5-methoxy-pyridin-2-yl)methanol]

same assay, conditions: Homo sapiens, HCT-116, phospho-serine 2056 DNA-PK, bleomycin-treated HCT116 cells; read-out: IC50 pDNA-PK

Structure (SMILES) | IC50
CNC(=O)C(c1cc(-c2ncnc3cc(N4CCOCC4)ccc23)c(F)cc1Cl)c1nccnc1OC (centres unmarked) [Example 229, 2-[2-Chloro-4-fluoro-5-(7-morpholin-4-yl-quinazolin-4-yl)-phenyl]-2-(3-methoxypyrazin-2-yl)-N-methyl-acetamide] | 0.5 to 5 µM
NC(=O)C(c1ccc(F)c(-c2ncnc3cc(N4CCOCC4)ccc23)c1)c1nncc2sccc12 (centres unmarked) [Example 285, 2-[4-Fluoro-3-(7-morpholin-4-yl-quinazolin-4-yl)-phenyl]-2-thieno-[2,3-d}pyridazin-4-yl-acetamide] | 10 to 30 µM

Results, then the molecule that gave them:

IC50 | Structure (SMILES)
0.5 to 5 µM | Cc1cnc(C(C(N)=O)c2cc(-c3ncnc4cc(N5CCOCC5)ccc34)c(F)cc2Cl)c(C)n1 (centres unmarked) [Example 301, 2-[2-Chloro-4-fluoro-5-(7-morpholin-4-yl-quinazolin-4-yl)-phenyl]-2-(3,5-dimethyl-pyrazin-2-yl)acetamide]
5 to 10 µM | Cc1cncc(C(O)c2ccc(F)c(-c3ncnc4cc(N5CCOCC5)ccc34)c2)n1 (centres unmarked) [Example 296, [4-Fluoro-3-(7-morpholin-4-yl-quinazolin-4-yl)-phenyl]-(6-methyl-pyrazin-2-yl)-methanol]
0.5 to 5 µM | O=c1[nH]nc(C(O)c2ccc(F)c(-c3ncnc4cc(N5CCOCC5)ccc34)c2)c2ccsc12 (centres unmarked) [Example 338, 4-[[4-Fluoro-3-(7-morpholino-quinazolin-4-yl)-phenyl]hydroxy-methyl]-6H-thieno[2,3-d}-pyridazin-7-one]

same assay, conditions: cellular DNA-PK phosphorylation at serine 2056, HCT116 cells; read-out: IC50 pDNA-PK

IC50 | Structure (SMILES)
0.5 to 5 µM | Cc1cncnc1C(C(N)=O)c1cc(-c2ncnc3cc(N4CCOCC4)ccc23)ccc1Cl (centres unmarked) [Example 407, 2-[2-Chloro-5-(7-morpholin-4-yl-quinazolin-4-yl)-phenyl]-2-(5-methyl-pyrimidin-4-yl)-acetamide]
< 0.5 µM | COc1nccnc1C(O)c1cc(-c2ncnc3cc(N4CCOCC4)ccc23)c(F)cc1F (centres unmarked) [Example 454]

Structure (SMILES) | IC50
OC(c1ccc(F)c(-c2ncnc3cc(N4CCOCC4)ccc23)c1)c1nccnc1OC(F)F (centres unmarked) [Example 464, (3-Difluoromethoxy-pyrazin-2-yl)-[4-fluoro-3-(7-morpholin-4-yl-quinazolin-4-yl)-phenyl]methanol] | 0.5 to 5 µM

same assay, conditions: phospho-serine 2056 DNA-PK, bleomycin-treated HCT116 cells; read-out: IC50 pDNA-PK

IC50 | Structure (SMILES)
< 0.5 µM | Cn1c(C(O)c2cc(-c3ncnc4cc(N5CCOCC5)ccc34)ccc2Cl)cccc1=O (centres unmarked) [Example 364, 6-{[2-Chloro-5-(7-morpholin-4-yl-quinazolin-4-yl)-phenyl]hydroxy-methyl}-1-methyl-1H-pyridin-2-one (Ena 1)]
